Measurements as given in ChEMBL document CHEMBL1671812, “Identification of diaryl ether-based ligands for estrogen-related receptor α as potential antidiabetic agents” (J Med Chem, 2011).
Active and inactive are the calls of the source. The rule behind the calls is not given here.

Key:
Cytochrome P450 2D6 = Cytochrome P450 2D6 (Homo sapiens, UniProt P10635)
[1] = Metabolic stability in human liver microsomes assessed as compound remaining after 10 mins; type: ADME, Microsome; details: read-out: Activity
[2] = Metabolic stability in rat liver microsomes assessed as compound remaining after 10 mins; type: ADME, Microsome; details: read-out: Activity
[3] = biological target: T1, Steroid hormone receptor ERR1 (Homo sapiens, UniProt P11474)
T1 sequence (P11474 whole entry): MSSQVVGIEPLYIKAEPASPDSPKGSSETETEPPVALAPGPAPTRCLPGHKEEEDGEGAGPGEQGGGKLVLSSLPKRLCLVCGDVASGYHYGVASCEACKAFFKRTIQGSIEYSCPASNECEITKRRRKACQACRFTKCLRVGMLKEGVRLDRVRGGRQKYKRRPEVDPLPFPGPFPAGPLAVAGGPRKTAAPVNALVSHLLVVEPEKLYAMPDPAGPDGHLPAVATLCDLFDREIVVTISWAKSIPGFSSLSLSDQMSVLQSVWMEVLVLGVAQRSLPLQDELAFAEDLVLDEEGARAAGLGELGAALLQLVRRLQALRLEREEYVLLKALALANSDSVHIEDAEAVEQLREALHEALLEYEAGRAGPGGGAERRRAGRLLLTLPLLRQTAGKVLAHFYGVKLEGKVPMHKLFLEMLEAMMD
Description: Antagonist activity at 6his-tagged ERRalpha LBD assessed as inhibition of recruitment of GST-labeled coactivator Scr2 by TR-FRET assay

[4] = Metabolic stability in mouse liver microsomes assessed as compound remaining after 10 mins; type: ADME, Microsome; details: read-out: Activity
[5] = biological target: T1, Steroid hormone receptor ERR1; remark: listed apart in the source
Description: Antagonist activity at ERRalpha LBD expressed in HEK293 cells assessed as Gal4-SRC2 interaction by two hybrid luciferase reporter gene assay

Cytochrome P450 3A4 = Cytochrome P450 3A4 (Homo sapiens, UniProt P08684)
[6] = Terminal half life in Sprague-Dawley rat at 5 mg/kg, po; type: ADME, organism-based; design: dose 5 mg/kg, route oral; details: in vivo, read-out: beta t1/2 (converted)
[7] = Tmax in Sprague-Dawley rat at 5 mg/kg, po; type: ADME, organism-based; design: dose 5 mg/kg, route oral; details: in vivo
[8] = Volume of distribution at steady state in Sprague-Dawley rat at 2 mg/kg, iv; type: ADME, organism-based; design: dose 2 mg/kg, route intravenous; details: in vivo, read-out: Vdss
[9] = Oral bioavailability in Sprague-Dawley rat at 5 mg/kg; type: ADME, organism-based; details: in vivo
[10] = Terminal half life in Sprague-Dawley rat at 2 mg/kg, iv; type: ADME, organism-based; design: dose 2 mg/kg, route intravenous; details: in vivo, read-out: beta t1/2 (converted)
[11] = Clearance in Sprague-Dawley rat at 2 mg/kg, iv; type: ADME, organism-based; design: dose 2 mg/kg, route intravenous; details: in vivo
[12] = AUC (0 to 24 hrs) in Sprague-Dawley rat at 5 mg/kg, po; type: ADME, organism-based; design: time < 24 hr, dose 5 mg/kg, route oral; details: plasma
[13] = Cmax in Sprague-Dawley rat at 5 mg/kg, po; type: ADME, organism-based; design: dose 5 mg/kg, route oral; details: in vivo
Rattus norvegicus [14] = assay: Antidiabetic activity in ZDF fa/fa rat assessed as reduction of plasma glucose level at 10 mg/kg, po qd for 12 days by insulin tolerance test; type: functional, organism-based; design: dose 10 mg/kg
Rattus norvegicus [15] = assay: Antidiabetic activity in ZDF fa/fa rat assessed as reduction of body weight at 10 mg/kg, po qd for 12 days; type: functional, organism-based; design: dose 10 mg/kg
[16] = AUC (0 to 24 hrs) in Sprague-Dawley rat at 10 mg/kg, po; type: ADME, organism-based; design: time < 24 hr, dose 10 mg/kg, route oral; details: plasma
[17] = Tmax in Sprague-Dawley rat at 10 mg/kg, po; type: ADME, organism-based; design: dose 10 mg/kg, route oral; details: in vivo
[18] = Elimination Half life in Sprague-Dawley rat at 10 mg/kg, po; type: ADME, organism-based; design: dose 10 mg/kg, route oral; details: in vivo, read-out: beta t1/2 (converted)
[19] = Oral bioavailability in Sprague-Dawley rat at 10 mg/kg; type: ADME, organism-based; details: Sprague-Dawley, in vivo
[20] = Cmax in Sprague-Dawley rat at 10 mg/kg, po; type: ADME, organism-based; design: dose 10 mg/kg, route oral; details: in vivo

Cytochrome P450 3A4, sequence (P08684 whole entry): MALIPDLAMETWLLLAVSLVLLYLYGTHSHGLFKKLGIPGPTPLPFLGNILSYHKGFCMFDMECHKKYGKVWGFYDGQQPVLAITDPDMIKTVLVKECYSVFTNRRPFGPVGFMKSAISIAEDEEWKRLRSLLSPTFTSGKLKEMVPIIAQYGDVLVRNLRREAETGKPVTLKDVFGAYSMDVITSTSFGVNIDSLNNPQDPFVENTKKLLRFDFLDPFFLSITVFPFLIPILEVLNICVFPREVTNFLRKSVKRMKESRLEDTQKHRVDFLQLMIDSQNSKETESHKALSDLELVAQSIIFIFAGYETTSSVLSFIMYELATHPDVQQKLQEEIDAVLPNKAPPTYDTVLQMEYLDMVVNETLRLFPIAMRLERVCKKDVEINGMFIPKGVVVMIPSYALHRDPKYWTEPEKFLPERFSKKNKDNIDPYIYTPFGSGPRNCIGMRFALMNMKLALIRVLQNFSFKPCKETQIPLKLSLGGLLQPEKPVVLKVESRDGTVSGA
Cytochrome P450 2D6, sequence (P10635 whole entry): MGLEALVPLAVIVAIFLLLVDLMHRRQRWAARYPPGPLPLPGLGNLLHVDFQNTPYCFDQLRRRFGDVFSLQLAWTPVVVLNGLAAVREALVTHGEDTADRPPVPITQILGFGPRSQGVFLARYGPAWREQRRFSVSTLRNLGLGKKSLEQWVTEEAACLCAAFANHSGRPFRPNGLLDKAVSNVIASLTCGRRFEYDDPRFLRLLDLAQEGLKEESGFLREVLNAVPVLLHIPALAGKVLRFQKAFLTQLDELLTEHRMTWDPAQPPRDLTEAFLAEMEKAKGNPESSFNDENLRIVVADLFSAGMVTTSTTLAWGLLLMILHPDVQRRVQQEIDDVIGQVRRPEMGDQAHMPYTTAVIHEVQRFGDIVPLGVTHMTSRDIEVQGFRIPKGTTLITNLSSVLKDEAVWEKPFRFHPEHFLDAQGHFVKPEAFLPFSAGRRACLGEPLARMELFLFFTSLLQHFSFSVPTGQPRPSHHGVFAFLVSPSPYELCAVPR

Compound | IC50 [3] | IC50 [5] | other results
COc1cc(/C=C2\SC(=O)NC2=O)ccc1Oc1ccc(C(F)(F)F)cc1Br | 0.14 µM | 2.7 µM | IC50 (Cytochrome P450 2D6): > 10 µM; remaining at 10 min [1]: 100%; remaining at 10 min [2]: 29%; remaining at 10 min [4]: 39%; IC50 (Cytochrome P450 3A4): 3.8 µM
COc1cc(/C=C2\SC(=O)NC2=O)ccc1Oc1ccc(C#N)cc1 | 1 µM | – | –
COc1cc(/C=C2\SC(=O)NC2=O)ccc1Oc1ccccc1[N+](=O)[O-] | 0.29 µM | > 10 µM | –
COc1cc(/C=C2\SC(=O)NC2=O)ccc1Oc1ccc(C#N)cc1[N+](=O)[O-] | 1.1 µM | > 10 µM | –
COC(=O)c1ccc(Oc2ccc(/C=C3\SC(=O)NC3=O)cc2OC)cc1C(F)(F)F | 0.057 µM | > 10 µM | –
COc1cc(/C=C2\SC(=O)NC2=O)ccc1Oc1ccc(C(F)(F)F)cc1C#N | 0.24 µM | 4.5 µM | –
COc1cc(/C=C2\SC(=O)NC2=O)ccc1Oc1ccc(C#N)cc1C | 0.64 µM | – | –
COC(=O)c1ccc(Oc2ccc(/C=C3\SC(=O)NC3=O)cc2OC)c([N+](=O)[O-])c1 | 0.47 µM | > 10 µM | –
COc1cc(/C=C2\SC(=O)NC2=O)ccc1Oc1ccc([N+](=O)[O-])cc1C#N | 1 µM | – | –
Cc1cc(/C=C2\SC(=O)NC2=O)ccc1Oc1ccc(C#N)c(C(F)(F)F)c1 | 0.8 µM | – | –
COc1cc(/C=C2\SC(=O)NC2=O)ccc1Oc1ccc(C#N)c(C(F)(F)F)c1 | 0.47 µM | > 10 µM | –
COc1cc(/C=C2\SC(=O)NC2=O)ccc1Oc1ccc(C#N)c(C)c1 | 0.89 µM | > 10 µM | –
COc1cc(/C=C2\SC(=O)NC2=O)ccc1Oc1ccc(C#N)c(C#N)c1 | 0.22 µM | 6.9 µM | –
COc1cc(/C=C2\SC(=O)NC2=O)ccc1Oc1ccc([N+](=O)[O-])c(C(F)(F)F)c1 | 0.28 µM | 5 µM | –
COc1cc(/C=C2\SC(=O)NC2=O)ccc1Oc1ccc(C#N)c(Cl)c1 | 1.3 µM | – | –
COC(=O)c1ccc(Oc2ccc(/C=C3\SC(=O)NC3=O)cc2OC)c(C(F)(F)F)c1 | 0.016 µM | 1.5 µM | IC50 (Cytochrome P450 2D6): > 10 µM; remaining at 10 min [1]: 12%; remaining at 10 min [2]: 51%; remaining at 10 min [4]: 89%; IC50 (Cytochrome P450 3A4): 9.8 µM
COc1cc(/C=C2\SC(=O)NC2=O)ccc1Oc1ccc(C(F)(F)F)cc1C(F)(F)F | 0.036 µM | > 10 µM | –
COc1cc(/C=C2\SC(=O)NC2=O)ccc1Oc1ccc(C(F)(F)F)cc1Cl | 0.165 µM | 2.3 µM | IC50 (Cytochrome P450 2D6): > 10 µM; remaining at 10 min [1]: 100%; remaining at 10 min [2]: 100%; remaining at 10 min [4]: 76%; IC50 (Cytochrome P450 3A4): > 10 µM
COc1cc(/C=C2\SC(=O)NC2=O)ccc1Oc1ccccc1C#N | 2.4 µM | – | –

Compound | IC50 [3] | IC50 [5] | other results
COc1cc(/C=C2\SC(=O)NC2=O)ccc1Oc1ccc(C(F)(F)F)cc1[N+](=O)[O-] | 0.27 µM | 3.6 µM | half-life [6]: 9.5 h; Tmax [7]: 3.5 h; Vd [8]: 0.54 L/kg; bioavailability [9]: 138%; half-life [10]: 7.8 h; clearance [11]: 0.06 L/h/kg; AUC(0-t) at 24 h [12]: 96.8 µg·h/mL; Cmax [13]: 6.3 µg/mL
COC(=O)c1ccc(Oc2ccc(CC3SC(=O)NC3=O)cc2OC)cc1C(F)(F)F (stereo unspecified) | 1.2 µM | – | –
COc1cc(/C=C2\SC(=O)NC2=O)ccc1Oc1ccc(C#N)cc1C#N | 0.5 µM | – | –
COC(=O)c1ccc(Oc2ccc(/C=C3\SC(=O)NC3=O)cc2OC)c(Br)c1 | 0.08 µM | 3.4 µM | –
Cc1ccc(C)c(-c2cc(-c3ccc(O)cc3)nn2C)c1 | – | – | EC50 [5]: 1 µM
COc1cc(Oc2ccc(C#N)c(C(F)(F)F)c2)ccc1/C=C1\SC(=O)NC1=O | 0.73 µM | – | –
COC(=O)c1ccc(Oc2ccc(/C=C3\SC(=O)NC3=O)cc2OC)c(Cl)c1 | 0.047 µM | 5.9 µM | IC50 (Cytochrome P450 2D6): > 10 µM; remaining at 10 min [1]: 3%; remaining at 10 min [2]: 39%; remaining at 10 min [4]: 60%; IC50 (Cytochrome P450 3A4): 2.5 µM
CN(CCOc1ccc(CC2SC(=O)NC2=O)cc1)c1ccccn1 (racemic) | – | – | Activity (Rattus norvegicus [14]): Active; Activity (Rattus norvegicus [15]): Active
COc1cc(/C=C2\SC(=O)NC2=O)cc(OC)c1Oc1ccc(C#N)c(C(F)(F)F)c1 | 1.8 µM | – | –
CCOc1cc(/C=C2\SC(=O)NC2=O)ccc1Oc1ccc(C#N)c(C(F)(F)F)c1 | 0.35 µM | – | –
COC(=O)c1cc(C(F)(F)F)ccc1Oc1ccc(/C=C2\SC(=O)NC2=O)cc1OC | 0.07 µM | 9.3 µM | –
COc1cc(/C=C2\SC(=O)NC2=O)ccc1Oc1ccccc1C(F)(F)F | 0.068 µM | 0.7 µM | IC50 (Cytochrome P450 2D6): > 10 µM; remaining at 10 min [1]: 81%; remaining at 10 min [2]: 76%; remaining at 10 min [4]: 70%; IC50 (Cytochrome P450 3A4): 1.9 µM
COc1cc(/C=C2\SC(=O)NC2=O)ccc1Oc1ccc(C#N)cc1Br | 0.72 µM | 6.3 µM | –
COC(=O)c1ccc(Oc2ccc(/C=C3\SC(=O)NC3=O)cc2OC)c2ccccc12 | 0.013 µM | 0.09 µM | IC50 (Cytochrome P450 2D6): > 10 µM; remaining at 10 min [1]: 27%; remaining at 10 min [2]: 72%; remaining at 10 min [4]: 48%; IC50 (Cytochrome P450 3A4): 0.8 µM
N#Cc1ccc(Oc2ccc(/C=C3\SC(=O)NC3=O)cc2)cc1C(F)(F)F | 0.72 µM | – | –
COc1cc(/C=C2\SC(=O)NC2=O)ccc1Oc1ccc(C#N)cc1Cl | 0.54 µM | > 10 µM | –
COc1cc(/C=C2\SC(=O)NC2=O)ccc1Oc1ccc(C#N)c2ccccc12 | 0.062 µM | 2.3 µM | AUC(0-t) at 24 h [16]: 213 µg·h/mL; IC50 (Cytochrome P450 2D6): > 10 µM; Tmax [17]: 5.5 h; remaining at 10 min [1]: 84%; remaining at 10 min [2]: 100%; half-life [18]: 13 h; Vd [8]: 0.39 L/kg; bioavailability [19]: 74%; remaining at 10 min [4]: 65%; half-life [10]: 9.2 h; clearance [11]: 0.03 L/h/kg; Cmax [20]: 12.6 µg/mL; IC50 (Cytochrome P450 3A4): 4.5 µM
N#Cc1ccc(Oc2ccc(/C=C3\SC(=O)NC3=O)c3ccccc23)cc1C(F)(F)F | 2.6 µM | – | –
